Marks after values point to notes of the source that are not given here.
Key:
[1] = system: apo E−/− mouse; assay: Blood fat assay in serum of apo E−/− mice on Western Diet; assay type: in vivo; conditions: for HDL-C in serum / LDL-C in serum / TC in serum / TC-HDL/HDL / TG in serum: 15 weeks
Protocol: (§1) 80 healthy clean grade C57BL/6J apo E^−/^− mice of 10 weeks old, wherein male and female mice were fifty-fifty, weight 20-22 g, were breed and divided into individual cage in sterile laminar flow rack, allowing mice to freely drink water and get food. Mice were raised for 30 weeks by “Western Diet” (routine mouse feed +0.15% cholesterol +21% fat) high fat feed (^60cobalt sterilization radiation treatment), with raising conditions being SPF grade, room temperature maintained at 24° C., relative humidity of 50%, and lighting time of 7: 30-19: 30. Animal house was sterilized by ultraviolet lamp once every two days, in order to maintain sterile environment of laminar flow rack (establishment of animal model of atherosclerosis refers to reference: Barish G D, Atkins A R, Downes M, Olson P, Chong L W, Nelson M, Zou Y H, Hwang H S, Kang H J, Curtiss L, Evans R M, Lee C H. PPARδ regulates multiple proinflammatory pathways to suppress atherosclerosis. Proc Natl Acad Sci, 2008, 105 (11): 4271-4276.).
5 mice of apo E^−/^− mice raised for 15 weeks were randomly selected and sacrificed, root of aorta of which was taken, and replication condition in AS model was observed by HE staining. The remaining mice were randomly divided into 5 groups as follows (n=15):
A. model group: vehicle; B. ginsenoside compound K low dose group: ginsenoside compound K 12.5 mg/kg/day; C. ginsenoside compound K middle dose group: ginsenoside compound K 25.0 mg/kg/day; D. ginsenoside compound K high dose group: ginsenoside compound K 50.0 mg/kg/day; E. simvastatin control group: simvastatin 10.0 mg/kg/day.
(§2) Above drugs were firstly solved in DMSO, then suspended in 0.5% carboxymethylcellulose solution, mixed homogeneously, and then were administered via gavage, once a day. Mice were weighted once a week, and ingestion amounts were recorded, and drug doses were adjusted according to weight, interfering for 15 weeks. All the animal were sacrificed in 30th week.
apo E^−/^− mouse serum sample: apo E^−/^− mice were interfered by drug for 15 weeks, then were fasted for 12 hours before sampling. Before being sacrificed, mice were anesthetized by 0.5-1.0 mL 1% Pentobarbital via abdominal cavity, and under sterile condition, 1.5 mL blood form their eye sockets venous plexus was sampled, and centrifugated at 2500 r/min for 10 minutes, and then serum was separated, and frozen and stored at −80° C., for determining blood fat concentrations and inflammatory markers in serum.
• blood fat assay: TC, TG, HDL-C, and LDL-C concentrations in serum were determined by applying Olympus Au2700 fully automatic biochemical appearance. • serum inflammatory markers assay: hs-CRP and sCD40L concentrations were determined by applying double antibody sandwich ELISA, in accordance with ELISA kit operating instruction (hs-CRP ELISA kit bought from Herrenberg company, Germany; sCD40L ELISA kit bought from Bender Medsystems company, Austria). • real-time quantitative PCR analysis was carried out on expression of CD36, perilipin, ABCA1, LXRα, MMP-9 and NF-κ B mRNA in apo E^−/^− mouse aorta (a reference method: Zhang Yiguan, Li Xiaohui, Fan Jishan, Zhang Haigang, Li Shuhui, Liao Wenqiang, Pang Yan, Jia Yi. Total panax notoginsenosides suppress atherosclerosis formation in rats by means of antiinflammatory and blood fat regulating action. Progress in Modern Biomedicine. 2007, 27 (11): 1601-1607)0 • morphology index image analysis: When slices were HE stained, under X40 fold ordinary light microscope, artery atherosclerosis plaque area of each incisal surface was determined by “Image Pro Plus 5.0” image analysis software. Plaque area (PA), vessel cross section area (CVA), lipid core area (LCA), and minimal fibrous cap thickness (mFCT) were measured, and corrected plaque area (plaque area/vessel cross section area, PA/CVA) and corrected lipid core area (lipid core area/plaque area, LCA/PA) were calculated, and average of 4 incisal surfaces was taken for each sample. […]

[2] = system: hs-CRP; assay: Serum hs-CRP by double antibody sandwich ELISA in apo E−/− mice; assay type: in vivo, mouse; conditions: 15 weeks
Protocol: as §1
(§3) 5 mice of apo E^−/^− mice raised for 15 weeks were randomly selected and sacrificed, root of aorta of which was taken, and replication condition in AS model was observed by HE staining. The remaining mice were randomly divided into 5 groups as follows (n=15): […]
as §2, with “All the animal were sacrificed in 30th week.” left out
• blood fat assay: TC, TG, HDL-C, and LDL-C concentrations in serum were determined by applying Olympus Au2700 fully automatic biochemical appearance. • serum inflammatory markers assay: hs-CRP and sCD40L concentrations were determined by applying double antibody sandwich ELISA, in accordance with ELISA kit operating instruction (hs-CRP ELISA kit bought from Herrenberg company, Germany; sCD40L ELISA kit bought from Bender Medsystems company, Austria). • real-time quantitative PCR analysis was carried out on expression of CD36, perilipin, ABCA1, LXRα, MMP-9 and NF-κ B mRNA in apo E^−/^− mouse aorta (a reference method: Zhang Yiguan, Li Xiaohui, Fan Jishan, Zhang Haigang, Li Shuhui, Liao Wenqiang, Pang Yan, Jia Yi. […] 2007, 27 (11): 1601-1607)0 • morphology index image analysis: When slices were HE stained, under X40 fold ordinary light microscope, artery atherosclerosis plaque area of each incisal surface was determined by “Image Pro Plus 5.0” image analysis software. […]

[3] = system: perilipin mRNA; assay: Real-time quantitative PCR of perilipin mRNA in apo E−/− mouse aorta; assay type: in vivo; conditions: apo E−/− mice, 15 weeks
From the text: (§5) Total RNA sample of root of aorta of apo E^−/^− mouse: Total RNA samples of root of aorta in each group mouse were extracted, and utilized for analysis of gene expression of various lipid metabolic factors, inflammatory factors, and nucleic transcription factors associated with AS plaque development.

[4] = system: LXRα mRNA; assay: Real-time quantitative PCR of LXRα mRNA in apo E−/− mouse aorta; assay type: in vivo; conditions: apo E−/− mice, 15 weeks
Protocol: as §1, §3
as §2, with “All the animal were sacrificed in 30th week.” left out
(§4) • blood fat assay: TC, TG, HDL-C, and LDL-C concentrations in serum were determined by applying Olympus Au2700 fully automatic biochemical appearance. • serum inflammatory markers assay: hs-CRP and sCD40L concentrations were determined by applying double antibody sandwich ELISA, in accordance with ELISA kit operating instruction (hs-CRP ELISA kit bought from Herrenberg company, Germany; sCD40L ELISA kit bought from Bender Medsystems company, Austria). • real-time quantitative PCR analysis was carried out on expression of CD36, perilipin, ABCA1, LXRα, MMP-9 and NF-κ B mRNA in apo E^−/^− mouse aorta (a reference method: Zhang Yiguan, Li Xiaohui, Fan Jishan, Zhang Haigang, Li Shuhui, Liao Wenqiang, Pang Yan, Jia Yi. […] 2007, 27 (11): 1601-1607)0 • morphology index image analysis: When slices were HE stained, under X40 fold ordinary light microscope, artery atherosclerosis plaque area of each incisal surface was determined by “Image Pro Plus 5.0” image analysis software. […] As to Masosn staining, aortic root collagen area (CA) was measured by “Image Pro Plus 5.0” image analysis software, and collagen vessel area ratio (CA/CVA) was calculated. […]

[5] = system: MMP-9 mRNA; assay: Real-time quantitative PCR of MMP-9 mRNA in apo E−/− mouse aorta; assay type: in vivo; conditions: apo E−/− mice, 15 weeks
Protocol: as §1, §3
as §2, with “All the animal were sacrificed in 30th week.” left out
as §4

[6] = system: NF-κB mRNA; assay: Real-time quantitative PCR of NF-κB mRNA in apo E−/− mouse aorta; assay type: in vivo; conditions: apo E−/− mice, 15 weeks
From the text: as §5

[7] = system: AS plaque in apo E−/− mouse aorta; assay: Sudan IV staining of aorta, proportion of plaque area in arteria lining endothelium area; assay type: in vivo; conditions: apo E−/− mice, 15 weeks
From the text: Tissues of apo E^−/^− mice were sliced for AS plaque pathology: blood of eye sockets venous plexus of apo E−/− mice was sampled before the mice was sacrificed by cervical dislocation, and aorta was fixed by converse infusion of physiological saline comprising 4% paraformaldehyde into left ventricle, and then whole aorta was cut off from root of aorta to terminal end of abdomen aorta. Root of aorta was taken, and embedded routinely by paraffin, and slices of thickness of 5 μm were continuously cut off from root of aorta, and were subjected separately to HE staining, and MASSON staining, and then were utilized for AS plaque morphological index analysis of aortic valve cross section.
Pathological staining: □sequent 2 pieces of slices were picked up from each incisal surface of sequent paraffin slices of aorta root per mouse, and were separately subjected to HE staining, and MASSON staining, and were observed under light microscope. □remaining aorta was stained by Sudan IV, and was observed under light microscope.

[8] = C-K high dose 50.0 mg/kg/day gavage
[9] = C-K middle dose 25.0 mg/kg/day gavage
[10] = simvastatin 10.0 mg/kg/day gavage

## CC(C)=CCC[C@](C)(OC1OC(CO)C(O)C(O)C1O)C1CC[C@]2(C)C1[C@H](O)CC1[C@@]3(C)CC[C@H](O)C(C)(C)C3CC[C@]12C (stereo partly drawn) [C-K, 20-O-β-D-glucopyranosyl 20-(S)-protopanaxadiol]
[1]; C-K 12.5-50.0 mg/kg/day vs simvastatin 10.0 mg/kg/day
  action in regulating blood fat compared with simvastatin: not as good as that of simvastatin
[1]; [8]
  HDL-C in serum: 4.42 ± 1.06^a mmol/L
  LDL-C in serum: 6.11 ± 1.18^a mmol/L
  TC in serum: 20.48 ± 4.34^b mmol/L
  TC-HDL/HDL: 3.63 ± 0.10^b
  TG in serum: 2.19 ± 0.51^b mmol/L
[1]; C-K low dose 12.5 mg/kg/day gavage, model 2.65 ± 0.39
  TG in serum: 2.32 ± 0.41^a mmol/L
[1]; C-K low dose 12.5 mg/kg/day gavage, model 3.79 ± 1.17
  HDL-C in serum: 4.08 ± 1.32^a mmol/L
[1]; C-K low dose 12.5 mg/kg/day gavage, model 5.24 ± 0.36
  TC-HDL/HDL: 4.34 ± 0.16^a
[1]; C-K low dose 12.5 mg/kg/day gavage, model 6.99 ± 1.09
  LDL-C in serum: 6.45 ± 1.30^a mmol/L
[1]; C-K low dose 12.5 mg/kg/day gavage, model 23.59 ± 3.79
  TC in serum: 21.79 ± 4.53^a mmol/L
[1]; [9]
  HDL-C in serum: 4.12 ± 1.15^a mmol/L
  LDL-C in serum: 6.34 ± 1.22^a mmol/L
  TC in serum: 21.29 ± 4.44^a mmol/L
  TC-HDL/HDL: 4.17 ± 0.13^b
  TG in serum: 2.28 ± 0.32^a mmol/L
[2]; [8]
  hs-CRP concentration in serum: 6.14 ± 0.29^a ng/mL
[2]; C-K low dose 12.5 mg/kg/day gavage, model 8.13 ± 0.51
  hs-CRP concentration in serum: 6.68 ± 0.54^a ng/mL
[2]; [9]
  hs-CRP concentration in serum: 6.49 ± 0.36^a ng/mL
[3]; [8]
  expression of perilipin mRNA in aorta (relative concentrations): 0.51 ± 0.54^a
[3]; C-K low dose 12.5 mg/kg/day gavage, model 1.08 ± 0.06
  expression of perilipin mRNA in aorta (relative concentrations): 0.68 ± 0.56^a
[3]; [9]
  expression of perilipin mRNA in aorta (relative concentrations): 0.60 ± 0.49^a
[4]; [8]
  expression of LXRα mRNA in aorta (relative concentrations): 1.36 ± 0.06^b
[4]; C-K low dose 12.5 mg/kg/day gavage, model 0.87 ± 0.06
  expression of LXRα mRNA in aorta (relative concentrations): 1.26 ± 0.05^b
[4]; [9]
  expression of LXRα mRNA in aorta (relative concentrations): 1.33 ± 0.05^b
[5]; [8]
  expression of MMP-9 mRNA in aorta (relative concentrations): 0.67 ± 0.13^b
[5]; C-K low dose 12.5 mg/kg/day gavage, model 1.15 ± 0.12
  expression of MMP-9 mRNA in aorta (relative concentrations): 0.87 ± 0.12^b
[5]; [9]
  expression of MMP-9 mRNA in aorta (relative concentrations): 0.78 ± 0.11^b
[6]; [8]
  expression of NF-κB mRNA in aorta (relative concentrations): 0.69 ± 0.16^b
[6]; C-K low dose 12.5 mg/kg/day gavage, model 1.27 ± 0.18
  expression of NF-κB mRNA in aorta (relative concentrations): 0.90 ± 0.19^b
[6]; [9]
  expression of NF-κB mRNA in aorta (relative concentrations): 0.78 ± 0.23^b
[7]; [8]
  plaque area/ arteria lining endothelium area: 6.73 ± 0.65^b %
[7]; C-K low dose 12.5 mg/kg/day gavage, model 12.24 ± 0.45
  plaque area/ arteria lining endothelium area: 9.28 ± 0.39^b %
[7]; [9]
  plaque area/ arteria lining endothelium area: 9.54 ± 0.21^b %

## CCC(C)(C)C(=O)O[C@H]1C[C@@H](C)C=C2C=C[C@H](C)[C@H](CC[C@@H]3C[C@@H](O)CC(=O)O3)[C@H]21 [simvastatin, reference compound]
[1]; [10]
  HDL-C in serum: 3.80 ± 1.12 mmol/L
  LDL-C in serum: 1.73 ± 1.36^b mmol/L
  TC in serum: 13.62 ± 4.49^b mmol/L
  TC-HDL/HDL: 2.58 ± 0.18^b
  TG in serum: 1.34 ± 0.46^b mmol/L
[2]; [10]
  hs-CRP concentration in serum: 4.57 ± 0.68^b ng/mL
[3]; [10]
  expression of perilipin mRNA in aorta (relative concentrations): 0.23 ± 1.32^b
[4]; [10]
  expression of LXRα mRNA in aorta (relative concentrations): 0.95 ± 0.07
[5]; [10]
  expression of MMP-9 mRNA in aorta (relative concentrations): 0.94 ± 0.14^a
[6]; [10]
  expression of NF-κB mRNA in aorta (relative concentrations): 0.89 ± 0.16^b
[7]; [10]
  plaque area/ arteria lining endothelium area: 6.31 ± 0.19^b %

Reference: patent publication US20110212909A1, “Use of Ginsenoside Compound K in the Preparation of a Medicament for the Prevention and Treatment of Atherosclerosis” (priority 2008, published 2011)
